In patent US20190125888A1, “TARGETED CONJUGATES AND PARTICLES AND FORMULATIONS THEREOF” (priority 2015, published 2019) one finds IC50, Ki and Ligand charge data, which are given here for 12 compounds.

For data set [1], the system named is NCI-H524 (ATCC) human lung cancer cells. It is filed as cell-based. As to the method:
FIG. 1 is a graph of various conjugates represented as bars and showing on the Y-axis their activity in an H524 proliferation assay with and without competition by octreotide. […] This illustrates the suprprising finding that only maytansinoid conjugates show activity that is dependent on the receptor.
Conjugates were assessed in an in vitro assay evaluating inhibition of cell proliferation. NCI-H524 (ATCC) human lung cancer cells were plated in 96 well, V-bottomed plates (Costar) at a concentration of 5,000 cells/well and 24 hours later were treated with compound for 6 hours and further incubated 66 hours. Compound starting dose was 20 μM and three fold serial dilutions were done for a total of ten points. After 6 hours of treatment, cells were spun down, the drug containing media was removed, and fresh complete medium was added and used to resuspend the cells, which were spun again. After removal of the wash media, the cells were resuspended in complete medium, then transferred into white walled, flat bottomed 96 well plates. […] Proliferation was measured using CellTiter Glo reagent using the standard protocol (Promega) and a Glomax multi+detection system (Promega). Percent proliferation inhibition was calculated using the following formula: % inhibition=(control-treatment)/control*100. Control is defined as vehicle alone. IC50 curves were generated using the nonlinear regression analysis (four parameter) with GraphPad Prism 6.
Conjugates were tested for their activity dependence on the somatostatin receptor. Active agent Z in the conjugate was selected from auristatin, carbazitaxel, DM1, doxorubicin, platinum, SN-38 and vinblastine. Active agent Z is connected to octreotide with various linkers. Proliferation IC50 values of the conjugates were measured. Proliferation IC50 values of the conjugates without octreotide competition were also measured. The ratio of IC50 with octreotide competition and IC50 without octreotide competition is an indicator of whether activity is at least particially dependent on bind to the somatostatin receptor. […] Therefore, the activity of conjugates comprising DM1 is dependent on the binding to the somatostatin receptor.

The target in data set [2] is human SSTR2 (Homo sapiens, UniProt P30874). As to the kind of experiment: Radioligand-receptor binding assay, [125I] somatostatin, membranes from SSTR2 expressing CHO-K1 cells. As to the method:
These conjugates were also assessed in an in vitro assay evaluating binding to the somatostatin receptor 2 (SSTR2). A radioligand-receptor binding assay was conducted at Eurofins Panlabs (Taiwan) to determine the affinity of conjugates described herein to the SSTR2. The assay measures binding of radiolabeled ligand, [^125I] labeled somatostatin, to human SSTR2 using membrane preparations from SSTR2 expressing CHO-K1 cells. Membranes were incubated with radiolabeled somatostatin (0.03 nM) in the presence of conjugate/compound starting at a dose of 10 uM using 6× serial dilutions to obtain a 10-pt curve. After a four hour incubation, membranes were filtered and washed 3× and counted to determine the remaining [^125I] somatostatin bound to the receptor. IC50 values were determined by a non-linear, least squares regression analysis using MathIQ™ (ID Business Solutions Ltd., UK).

A short description of data set [3]: Ligand charge of maytansinoid conjugates. It is filed as physicochemical.
[4] abbreviates: read-out: H524 IC50 6 h, 6 hours treatment, further 66 hours incubation.
The mark [5] stands for this setting: read-out: H524 IC50 with 100 μM octreotide 6 h, with 100 μM octreotide competition, 6 h treatment.

pIC50, pKi: −log10 of the molar value. Where two headings read alike, the source gives them in different places.

Sequence of human SSTR2 (P30874 whole entry): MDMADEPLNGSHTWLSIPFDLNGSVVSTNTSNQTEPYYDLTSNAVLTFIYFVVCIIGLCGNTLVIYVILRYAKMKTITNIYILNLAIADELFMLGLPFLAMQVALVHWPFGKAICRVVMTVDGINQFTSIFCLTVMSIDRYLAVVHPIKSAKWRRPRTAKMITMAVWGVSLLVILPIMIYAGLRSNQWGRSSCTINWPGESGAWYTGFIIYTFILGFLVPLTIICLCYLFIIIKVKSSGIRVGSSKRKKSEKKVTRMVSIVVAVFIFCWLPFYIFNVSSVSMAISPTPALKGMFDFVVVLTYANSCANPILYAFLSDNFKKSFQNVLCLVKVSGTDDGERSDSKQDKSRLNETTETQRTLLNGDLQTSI

Usually pIC50 stands for the negative decadic logarithm of the IC50, by convention in mol/L. By pKi is commonly meant the Ki on a negative log10 scale, so that one unit is a factor of ten. On to `COc1cc2cc(c1Cl)N(C)C(=O)C[C@H](OC(=O)[C@H](C)N(C)C(=O)CCSSC[C@H](NC(=O)[C@@H]1CSSC[C@H](NC(=O)[C@@H](Cc3ccccc3)NC(=O)NC3CCCCC3)C(=O)N[C@@H](Cc3ccc(O)cc3)C(=O)N[C@H](Cc3c[nH]c4ccccc34)C(=O)N[C@@H](CCCCN)C(=O)N[C@@H]([C@@H](C)O)C(=O)N1)C(=O)NCc1ccccc1)[C@]1(C)O[C@H]1[C@H](C)[C@@H]1C[C@@](O)(NC(=O)O1)[C@H](OC)/C=C/C=C(\C)C2` [Conjugate 26], for which the pIC50 in data set [1] (setting [4]) is 7.52; in data set [1] (setting [5]), 6.97. In data set [2], this compound had a pKi of 8.85. Also, in data set [3], the Ligand charge entry was “+1”.

As for `COc1cc2cc(c1Cl)N(C)C(=O)C[C@H](OC(=O)[C@H](C)N(C)C(=O)CCSSC[C@H](NC(C)=O)C(=O)NC[C@H](NC(=O)[C@@H]1CSSC[C@H](NC(=O)[C@H](N)Cc3ccccc3)C(=O)N[C@@H](Cc3ccc(O)cc3)C(=O)N[C@H](Cc3c[nH]c4ccccc34)C(=O)N[C@@H](CCCCN)C(=O)N[C@@H]([C@@H](C)O)C(=O)N1)C(N)=O)[C@]1(C)O[C@H]1[C@H](C)[C@@H]1C[C@@](O)(NC(=O)O1)[C@H](OC)/C=C/C=C(\C)C2` [Conjugate 45], the pIC50 in data set [1] (setting [4]) was 8.89; in data set [1] (setting [5]) it was 6.81. In addition, the pKi in data set [2] is 10.31. Besides, the Ligand charge result in data set [3] is “+2”.

`COc1cc2cc(c1Cl)N(C)C(=O)C[C@H](OC(=O)[C@H](C)N(C)C(=O)CCSSC[C@H](NC(=O)[C@@H]1CSSC[C@H](NC(=O)[C@@H](Cc3ccccc3)NCc3ccccc3)C(=O)N[C@@H](Cc3ccc(O)cc3)C(=O)N[C@H](Cc3c[nH]c4ccccc34)C(=O)N[C@@H](CCCCN)C(=O)N[C@@H]([C@@H](C)O)C(=O)N1)C(N)=O)[C@]1(C)O[C@H]1[C@H](C)[C@@H]1C[C@@](O)(NC(=O)O1)[C@H](OC)/C=C/C=C(\C)C2` [Conjugate 43]: the pIC50 is 8.14 in data set [1] (setting [4]) and 7.70 in data set [1] (setting [5]). Also, the pKi in data set [2] is 10.12. In addition, the Ligand charge result in data set [3] is given as “+2”.

Consider `COc1cc2cc(c1Cl)N(C)C(=O)C[C@H](OC(=O)[C@H](C)N(C)C(=O)CCSSC(C)(C)[C@@H](NC(=O)[C@@H]1CSSC[C@H](NC(=O)[C@H](N)Cc3ccccc3)C(=O)N[C@@H](Cc3ccc(O)cc3)C(=O)N[C@H](Cc3c[nH]c4ccccc34)C(=O)N[C@@H](CCCCN)C(=O)N[C@@H]([C@@H](C)O)C(=O)N1)C(N)=O)[C@]1(C)O[C@H]1[C@H](C)[C@@H]1C[C@@](O)(NC(=O)O1)[C@H](OC)/C=C/C=C(\C)C2` [Conjugate 8], for which the figures for the pIC50 in data set [1] (setting [4]) and in data set [1] (setting [5]) were 6.57 and 6.33, respectively. Moreover, in data set [2], the pKi was 9.10. Also, the Ligand charge entry in data set [3] is listed as “+2”.

As for `COc1cc2cc(c1Cl)N(C)C(=O)C[C@H](OC(=O)[C@H](C)N(C)C(=O)CCSSC(C)(C)[C@H](NC(=O)[C@@H]1CSSC[C@H](NC(=O)[C@@H](Cc3ccccc3)NC(=O)NCc3ccc(C(F)(F)F)cc3)C(=O)N[C@@H](Cc3ccc(O)cc3)C(=O)N[C@H](Cc3c[nH]c4ccccc34)C(=O)N[C@@H](CCCCN)C(=O)N[C@@H]([C@@H](C)O)C(=O)N1)C(N)=O)[C@]1(C)O[C@H]1[C@H](C)[C@@H]1C[C@@](O)(NC(=O)O1)[C@H](OC)/C=C/C=C(\C)C2` [Conjugate 15], the pIC50 in data set [1] (setting [4]) was 7.77; in data set [1] (setting [5]), 6.58. The compound also gave a pKi in data set [2] of 10.11. The Ligand charge entry in data set [3] was “+1”.

`CCNC(=O)N[C@H](Cc1ccccc1)C(=O)N[C@H]1CSSC[C@@H](C(=O)N[C@@H](CSSCCC(=O)N(C)[C@@H](C)C(=O)O[C@H]2CC(=O)N(C)c3cc(cc(OC)c3Cl)C/C(C)=C/C=C/[C@@H](OC)[C@@]3(O)C[C@H](OC(=O)N3)[C@@H](C)[C@@H]3O[C@@]23C)C(N)=O)NC(=O)[C@H]([C@@H](C)O)NC(=O)[C@H](CCCCN)NC(=O)[C@@H](Cc2c[nH]c3ccccc23)NC(=O)[C@H](Cc2ccc(O)cc2)NC1=O` [Conjugate 39]: the values for the pIC50 in data set [1] (setting [4]) and in data set [1] (setting [5]) were 8.89 and 7.92, respectively. In data set [2], this compound had a pKi of 10.15. In addition, the Ligand charge entry in data set [3] is given as “+1”.

As to `COc1cc2cc(c1Cl)N(C)C(=O)C[C@H](OC(=O)[C@H](C)N(C)C(=O)CCC(C)(C)SSC[C@H](NC(=O)[C@@H]1CSSC[C@H](NC(=O)[C@@H](Cc3ccccc3)NC(=O)Nc3ccccc3)C(=O)N[C@@H](Cc3ccc(O)cc3)C(=O)N[C@H](Cc3c[nH]c4ccccc34)C(=O)N[C@@H](CCCCN)C(=O)N[C@@H]([C@@H](C)O)C(=O)N1)C(N)=O)[C@]1(C)O[C@H]1[C@H](C)[C@@H]1C[C@@](O)(NC(=O)O1)[C@H](OC)/C=C/C=C(\C)C2` [Conjugate 5], the pIC50 in data set [1] (setting [4]) is 8.11; in data set [1] (setting [5]) it was 6.50. This compound also had a pKi in data set [2] of 9.49. Besides, the Ligand charge result in data set [3] is “+1”.

Regarding `COc1cc2cc(c1Cl)N(C)C(=O)C[C@H](OC(=O)[C@H](C)N(C)C(=O)CCSSC(C)(C)[C@@H](NC(=O)[C@@H]1CSSC[C@H](NC(=O)[C@@H](Cc3ccccc3)NC(=O)NCc3ccccc3)C(=O)N[C@@H](Cc3ccc(O)cc3)C(=O)N[C@H](Cc3c[nH]c4ccccc34)C(=O)N[C@@H](CCCCN)C(=O)N[C@@H]([C@@H](C)O)C(=O)N1)C(N)=O)[C@]1(C)O[C@H]1[C@H](C)[C@@H]1C[C@@](O)(NC(=O)O1)[C@H](OC)/C=C/C=C(\C)C2` [Conjugate 9], the figures for the pIC50 in data set [1] (setting [4]) and in data set [1] (setting [5]) were 6.68 and 6.09, respectively. Moreover, the pKi in data set [2] was 8.50. Also, in data set [3], the Ligand charge result is reported as “+1”.

Take `COc1cc2cc(c1Cl)N(C)C(=O)C[C@H](OC(=O)[C@H](C)N(C)C(=O)CCSSC[C@@H](NC(=O)[C@@H]1CSSC[C@H](NC(=O)[C@@H](Cc3ccccc3)NC(=O)C(F)(F)F)C(=O)N[C@@H](Cc3ccc(O)cc3)C(=O)N[C@H](Cc3c[nH]c4ccccc34)C(=O)N[C@@H](CCCCN)C(=O)N[C@@H]([C@@H](C)O)C(=O)N1)C(N)=O)[C@]1(C)O[C@H]1[C@H](C)[C@@H]1C[C@@](O)(NC(=O)O1)[C@H](OC)/C=C/C=C(\C)C2` [Conjugate 32]: the results for the pIC50 in data set [1] (setting [4]) and in data set [1] (setting [5]) were 7.48 and 7.01, respectively. The same compound gave a pKi in data set [2] of 9.09. The Ligand charge entry in data set [3] is “+1”.

`COC(=O)N[C@H](Cc1ccccc1)C(=O)N[C@H]1CSSC[C@@H](C(=O)N[C@@H](CSSCCC(=O)N(C)[C@@H](C)C(=O)O[C@H]2CC(=O)N(C)c3cc(cc(OC)c3Cl)C/C(C)=C/C=C/[C@@H](OC)[C@@]3(O)C[C@H](OC(=O)N3)[C@@H](C)[C@@H]3O[C@@]23C)C(N)=O)NC(=O)[C@H]([C@@H](C)O)NC(=O)[C@H](CCCCN)NC(=O)[C@@H](Cc2c[nH]c3ccccc23)NC(=O)[C@H](Cc2ccc(O)cc2)NC1=O` [Conjugate 35]: the values for the pIC50 in data set [1] (setting [4]) and in data set [1] (setting [5]) were 7.57 and 7.77, respectively. This compound had a pKi in data set [2] of 10.62. For the same compound, the Ligand charge result in data set [3] is on record as “+1”.

In the case of `COc1cc2cc(c1Cl)N(C)C(=O)C[C@H](OC(=O)[C@H](C)N(C)C(=O)CCSSC[C@H](NC(=O)[C@@H]1CSSC[C@H](NC(=O)[C@@H](Cc3ccccc3)NC(=O)C(F)(F)F)C(=O)N[C@@H](Cc3ccc(O)cc3)C(=O)N[C@H](Cc3c[nH]c4ccccc34)C(=O)N[C@@H](CCCCN)C(=O)N[C@@H]([C@@H](C)O)C(=O)N1)C(N)=O)[C@]1(C)O[C@H]1[C@H](C)[C@@H]1C[C@@](O)(NC(=O)O1)[C@H](OC)/C=C/C=C(\C)C2` [Conjugate 29], the pIC50 in data set [1] (setting [4]) is 8.24; in data set [1] (setting [5]), 7.55. Also, the pKi in data set [2] is 9.64. Also, the Ligand charge result in data set [3] is “+1”.

As for `COc1cc2cc(c1Cl)N(C)C(=O)C[C@H](OC(=O)[C@H](C)N(C)C(=O)CCSSC(C)(C)[C@H](NC(=O)CC[C@H](NC(=O)[C@@H]1CSSC[C@H](NC(=O)[C@H](N)Cc3ccccc3)C(=O)N[C@@H](Cc3ccc(O)cc3)C(=O)N[C@H](Cc3c[nH]c4ccccc34)C(=O)N[C@@H](CCCCN)C(=O)N[C@@H]([C@@H](C)O)C(=O)N1)C(N)=O)C(N)=O)[C@]1(C)O[C@H]1[C@H](C)[C@@H]1C[C@@](O)(NC(=O)O1)[C@H](OC)/C=C/C=C(\C)C2` [Conjugate 18], the pIC50 in data set [1] (setting [4]) was 7.72; in data set [1] (setting [5]), 6.45. In data set [2], this compound showed a pKi of 9.74. The Ligand charge result in data set [3] is given as “+2”.
